Data published in US10105380B2, “Glycoclusters and their pharmaceutical use as antibacterials” (priority 2013, dated 2018).
≈ marks a conversion by molar mass, not a printed value. Like-named read-outs stand apart in the source and are kept apart here.

Assays:
PA-IL [1] = target: T1, PA-IL (Pseudomonas aeruginosa, UniProt Q05097); test: Kd determination on DDI microarray (Langmuir isotherm, Scatchard plot); format: binding
Experimental: The methodologies for Kd and IC50 value determination have been previously reported (Gerland, B. et al., (2012) Bioconjugate Chem. 23, 1534-1547; Zhang, J. et al., (2009) Chem. Comm., 6795-6797; Zhang, J. et al., (2009) Biosens. Bioelectron. 24, 2515-2521).
CaCl2 (1 μg/mL final concentration) was added. PA-IL at the desired final concentration was then added. 2 μL of each solution (corresponding to the desired PA-IL concentration) were poured in the corresponding microwells. The slide was incubated (3 h, 37° C.) in a water vapor saturated chamber and finally washed in PBS-Tween 20 (0.02%, 5 min, 4° C.) and dried. A Microarray scanner, GenePix 4100A software package (Axon Instruments; λex 532/635 nm and λem 575/670 nm) was used for fluorescent imaging of both fluorophore (Cy3 and Alexa 647). The average of the mean fluorescence signal was calculated from eight spots. The resulting Langmuir Isotherms were linearised using Scatchard plot to give the Kd values at the ordonnate intercept.

PA-IL [2] = target: T1, PA-IL; format: binding; conditions: for β: Table 6, relative potency vs monovalent ligand 31; for Potency vs EG3-O-Gal: ratio of IC50Lac to mono EG3-O-galactose (entry 1); for Potency vs AcNPhe-O-Gal: ratio of IC50Lac to mono-aromatic galactose 31 (entry 2)
Experimental: IC50 Determination with “on Chip” Biological Recognition
Lectin PA-IL (0.12 μM final concentration), BSA (2% final concentration) and CaCl2 (1 μg/mL final concentration) was diluted in PBS1× (pH=7.4). In each micro tube was added the inhibitor lactose at the desired final concentration (0; 1.10^−5; 1.10^−4; 5.10^−4; 1.10^−3; 5.10^−3; 1.10^−2; 5.10^−2; 0.1; 1; 5; 10; 50; 10^2; 5.10^2; 10^3; 5.10^3; 10^4; 10^5; 3.10^5).
2 μL of each solution were deposited in the corresponding microwells and the slide was incubated at 37° C. in a water vapor saturated chamber for 3 h. The washing steps are: PBS-Tween0.2% 5 min at 4° C., then briefly in deionized water and dried by centrifugation.
Slide was scanned at 532 nm then at 635 nm with the Microarray scanner, GenePix 4100A software package (Axon Instruments; λex 532/635 nm and λem 575/670 nm). The fluorescence signal of each conjugate was determined as the average of the mean fluorescence signal of sixty-four spots.
IC50 values were determined using “BioDataFit 1.02 program”. The model chosen was “Sigmoidal”: Y=a+(b−a)/[1+10^(x−c)]
with a=FImin, b=FImax, x=[…] and c=log(IC50). FImin/max is the minimum/maximum Alexa-647 fluorescence signal observed for a galactomimetic.
So the IC50 value was called IC50Lac.

PA-IL [3] = target: T1, PA-IL; test: Enzyme Linked Lectin Assay (ELLA), PAA-galactose coated plates; format: binding; conditions: for ELLA βAr: IC50 of Gal-ArNO2 over IC50 of the molecule
Experimental: (§1) The binding of PA-IL to galactoclusters was probed as the ability of the clusters to inhibit the binding of PA-IL to rabbit erythrocytes (Hemagglutination inhibition assay, HIA) or to surface bound galactosyl modified polyacrylamide either by Surface Plasmon Resonance (SPR), Enzyme Linked Assay (ELLA) Inhibition was measured with competitive assays. In HIA experiments, the minimal inhibitory concentration (MIC) is the minimal concentration of galactocluster that inhibit the hemagglutination of rabbit erythrocytes in presence of the lectin. The lower the MIC the highest is the binding of the galactocluster to the lectin. SPR and ELLA were used to determine the IC50 value. […] The lower the IC50 value as determined by SPR (^SPRIC50) and ELLA (^ELLAIC50), the higher is the binding of PA-IL to the galactocluster.
96-Well microtiter plates (NuncMaxisorb) were coated with α-PAA-Gal(PAA=polyacrylamide) for PA-IL (Lectinity Holding, Inc.): 100 μL of 5 μg·mL^−1 in carbonate buffer, pH 9.6 for 1 h at 37° C., then blocking at 37° C. for 1 h with 100 μL per well of 3% (w/v) bovine serum albumin (BSA) in phosphate buffer solution (PBS). Lectin solutions (75 μL) were diluted (1:2) starting from 30 μg·mL^−1. After 1 h incubation at 37° C. and three washes with T-PBS (PBS that contained 0.05% Tween 20), horseradish peroxidase (HRP)-streptavidin conjugate (100 μL; dilution 2:8000; Boehringer-Mannheim) was added and left for 1 h at 37° C. Coloration was developed by using 100 μL per well of 0.05% phosphate/citrate buffer that contained o-phenylenediaminedihydrochloride ([…]) and urea hydrogen peroxide (0.4 mg·mL^−1) (OPD kit, Sigma-Aldrich) for 15 min and stopped with sulfuric acid (50 μL, 30%). Absorbance was then read at 490 nm using a microtiter plate reader (BioRad 680). The concentration of biotinylatedlectins was determined by plotting the relative absorbance versus lectin concentration. The concentration that led to the highest response in the linear area was selected as the standard lectin concentration for the subsequent inhibition experiments.
Microtiter plates were modified with PAA-galactose. Slides were incubated with increasing concentration of galactosylated ligands. […] The lowest the IC50 as determined the strongest is the binding of the studied molecule to PA-IL. ELLA: This IC50 will be referred here after ^ELLAIC50. SPR: This IC50 will be referred here after ^SPRIC50.

PA-IL [4] = target: T1, PA-IL; test: Surface Plasmon Resonance (SPR) inhibition; format: binding; conditions: for SPR βAr: IC50 of Gal-ArNO2 over IC50 of the molecule
Experimental: as §1
SPR inhibition experiments were performed using a Biacore 3000 instrument at 25° C. Measurements were carried out on two channels with two immobilized sugars: α-L-fucose (channel 1) and α-D-galactose (channel 2). Immobilization of sugars was performed at 25° C. using running buffer (HBS) at […]. Immobilization on each channel (CM5 Chip) was performed independently as follows. First, the channel was activated by injecting a fresh mixture of EDC/NHS (35 μL, 420 s). Then a solution of streptavidin ([…] in 0.1 mM AcONa pH 5 buffer) was injected (50 μL, 600 s). The remaining reactive species were quenched by injecting ethanolamine (1M, 35 μL, 420 s) into the solution. Finally, a solution of the desired biotinylated-polyacrylamide-sugar (lectinity, […]) was coated onto the surface (50 μL, 600 s) through streptavidin-biotin interaction. […] Inhibition studies consisted of the injection (150 μL, 10 μL·min^−1, dissociation 120 s) of incubated (>1 h, RT) mixtures of PAIL ([…]) and various concentrations of inhibitor (twofold cascade dilutions). […] The CM5 chip was fully regenerated by successive injections of d-galactose (2×30 μL, 100 mm in running buffer). Binding was measured as RU over time after blank subtraction, and data were then evaluated using the BIAevaluation Software version 4.1. For IC50 evaluation, the response (Req-fitted) was considered to be the amount of lectin bound to the carbohydrate-coated surface at equilibrium in the presence of a defined concentration of inhibitor. Inhibition curves were obtained by plotting the percentage of inhibition against the inhibitor concentration (on a logarithmic scale) by using Origin 7.0 software (OriginLab Corp.), and IC50 values were extracted from sigmoidal fit of the inhibition curve.
Microtiter plates were modified with PAA-galactose. […] The lowest the IC50 as determined the strongest is the binding of the studied molecule to PA-IL. […]

PA-IL [5] = target: T1, PA-IL; test: Hemagglutination inhibition assay (HIA), rabbit erythrocytes; format: cell-based
Experimental: as §1
Hemagglutination inhibition assays (HIA) were performed in U-shaped 96-well microtitre plates. Rabbit erythrocytes were purchased from Biomérieux and used without further washing. Erythrocytes were diluted to a 8% solution in NaCl (100 mM). PA-IL solutions of 3 μM were prepared in TRIS-HCl 20 mM (TRIS=tris(hydroxymethyl)aminomethane), NaCl 100 mM, and CaCl2 100 mM. The hemagglutination unit (HU) was first obtained by addition of the 4% erythrocyte solution (50 μL) to aliquots (50 μL) of sequential (twice) lectin dilutions. The mixture was incubated at 25° C. for 30 min. The HU was measured as the minimum lectin concentration required to observe hemagglutination. For the following lectin-inhibition assays, lectin concentrations of 4 HU were used. […] Subsequent inhibition assays were then carried out by the addition of lectin solution (25 μL, at the required concentration) to sequential dilutions (50 μL) of glycoclusters, monomer molecules, and controls. These solutions were incubated at 37° C. for 30 min, then 8% erythrocyte solution (25 μL) was added, followed by an additional incubation at 37° C. for 1 h. The minimum inhibitory concentration for each molecule was determined for each duplicate.

[6] = DNA-tagged galactoclusters G1-G24 on glycoarray
[7] = DNA-tagged galactoclusters G1-G24 on glycoarray, read-out: IC50
[8] = lactose concentration required to displace 50% of PA-IL from the glycocluster, higher = better binding, read-out: IC50Lac
[9] = IC50 of Gal-OMe over IC50 of the molecule

T1 sequence (Q05097 2-122): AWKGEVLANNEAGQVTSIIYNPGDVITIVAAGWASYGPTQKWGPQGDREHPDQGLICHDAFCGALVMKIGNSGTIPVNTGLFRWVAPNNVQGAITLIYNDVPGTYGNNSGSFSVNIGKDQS

| Compound | Kd (PA-IL [1]; [6]) | IC50 (PA-IL [2]; [7]) | further results |
| --- | --- | --- | --- |
| Man(EG3MTzproNCONapht-OGal)4 [G23] | 0.048 µM | 68000 µM |  |
| Man(EG3MTzproNCOBisphe-OGal)4 [G19] | 0.046 µM | 68900 µM |  |
| Man(POEG2MTzAcNPhe-O-Gal)4 [compound 32] |  |  | Kd (PA-IL [1]; text b577, microarray, Langmuir isotherm): 0.083 µM; IC50 (PA-IL [2]; Table 6, DNA-galactomimetics, lactose as inhibitor, read-out: microarray IC50Lac): 4220 µM; β (PA-IL [2]): 264; IC50 (PA-IL [2]; [8]): 4220 µM; Potency vs EG3-O-Gal (PA-IL [2]): 844; Potency vs AcNPhe-O-Gal (PA-IL [2]): 264 |
| Man(PSEG3MTzAcNPh-SGal)4 [G12] | 0.07 µM | 19700 µM |  |
| Man(PSEG3MTzAcNPhe-CH2-Gal)4 [G8] | 0.125 µM | 8400 µM |  |
| Man(PSEG2MTzproNCONapht-OGal)4 [G22] | 0.02 µM |  |  |
| Man(EG3MTzAcNPh-SGal)4 [G11] | 0.049 µM | 63900 µM |  |
| Man(EG2MTzproNCONapht-OGal)4 [G21] | 0.014 µM |  |  |
| Man[POTHME(MTzAcNPhe-O-Gal)2]4 [compound 35] |  |  | IC50 (PA-IL [2]; [8]): 1810 µM; Potency vs EG3-O-Gal (PA-IL [2]): 361; Potency vs AcNPhe-O-Gal (PA-IL [2]): 113 |
| Man(PSEG2MTzAcNPhe-CH2-Gal)4 [G6] | 0.17 µM | 5700 µM |  |
| Man(EG2MTzAcNPhe-CH2-SGal)4 [G13] | 0.085 µM | 12000 µM |  |
| Man(EG3MTzAcNPhe-CH2-SGal)4 [G15] | 0.076 µM | 13300 µM |  |
| Man(EG3MTzAcNPhe-CH2-Gal)4 [G7] | 0.085 µM | 9100 µM |  |
| Man(POProTzEG3-O-Gal)4 [C3] |  |  | β (PA-IL [2]): 1.8; IC50 (PA-IL [2]; [8]): 29 µM; Potency vs EG3-O-Gal (PA-IL [2]): 5.8; Potency vs AcNPhe-O-Gal (PA-IL [2]): 1.8 |
| Man(PSEG3MTzAcNPh-Gal)4 [G4] | 0.076 µM | 17700 µM |  |
| O=[N+]([O-])c1ccc(O[C@@H]2O[C@H](CO)[C@H](O)[C@H](O)[C@H]2O)cc1 [Gal-ArNO2, 1-O-p-nitrophenyl-β-D-galactoside] |  |  | IC50 (PA-IL [3]): 33 µM; ELLA βAr (PA-IL [3]): 1.0; ELLA βMe (PA-IL [3]; [9]): 5.5; IC50 (PA-IL [4]): 6.7 µM; SPR βAr (PA-IL [4]): 1.0; SPR βMe (PA-IL [4]; [9]): 7.3; MIC (PA-IL [5]; minimal inhibitory concentration of hemagglutination, PA-IL 3 μM): 2000 µM (≈ 603 µg/mL); βAr (PA-IL [5]; ratio of MIC of Gal-OArNO2 over MIC of the molecule): 1.0; βMe (PA-IL [5]; ratio of MIC of Gal-OMe over MIC of the molecule): 8.0 |
| Man(PSEG2MTzAcNPhe-CH2-SGal)4 [G14] | 0.071 µM | 18500 µM |  |
| Man(PSEG3MTzAcNPhe-CH2-SGal)4 [G16] | 0.075 µM | 18100 µM |  |
| Man(PSEG3MTzproNCOBisphe-OGal)4 [G20] | 0.043 µM | 81600 µM |  |
| Man(EG2MTzproNCOBisphe-OGal)4 [G17] | 0.02 µM |  |  |
| Man(PSEG3MTzproNCONapht-OGal)4 [G24] | 0.031 µM |  |  |
| Man(POEG2MTzEG3-Gal)4 [compound 36] |  |  | IC50 (PA-IL [2]; [8]): 24 µM; Potency vs EG3-O-Gal (PA-IL [2]): 4.8; Potency vs AcNPhe-O-Gal (PA-IL [2]): 1.5 |
| Man(POProTzAcNPhe-O-Gal)8 [compound 34] |  |  | IC50 (PA-IL [2]; [8]): 6800 µM; Potency vs EG3-O-Gal (PA-IL [2]): 1361; Potency vs AcNPhe-O-Gal (PA-IL [2]): 425 |
| Man(POProTzEG3-O-Gal)4 |  |  | ELLA βAr (PA-IL [3]): 1.2; SPR βAr (PA-IL [4]): 1.7 |
| Man(PSEG2MTzAcNPh-SGal)4 [G10] | 0.055 µM | 38200 µM |  |
